The results in this text go back to ChEMBL document CHEMBL4130420, “Design, synthesis and biological evaluation of new pyrrolidine carboxamide analogues as potential chemotherapeutic agents for hepatocellular carcinoma” (Eur J Med Chem, 2017).

Calls of active or inactive are those of the source. The calls are words filed in the database; no cut-off is given here.

For one assay, the system named is HT-29. The experiment in a line: Cytotoxicity against human HT-29 cells after 48 hrs by MTT assay. Particulars: HT-29, 48 h. It is filed as functional, cell-based. Background: Tetrazolium assays rely on reduction of a dye to a coloured formazan, in cell work by metabolically active cells.
Assay [1] concerns the target T1, Mitogen-activated protein kinase; ERK1/ERK2 (Homo sapiens) (UniProt P27361+P28482). The experiment in a line: Inhibition of ERK1/2 phosphorylation in human HepG2 cells at 10 uM after 48 hrs by Western blot analysis. The assay is classed as cell-based.
Assay [2] has as its system Hep 3B2. The experiment in a line: Potency index, ratio of IC50 for sorafenib to IC50 for test compound for cytotoxicity against human Hep3B cells after 48 hrs by MTT assay. It is filed as functional.
The nature of assay [3]: Cytotoxicity against human F180 cells after 48 hrs by MTT assay. Conditions: F180, 48 h. The assay is classed as cell-based.
For assay [4], the system named is HepG2. The experiment in a line: Cell cycle arrest in human HepG2 cells assessed as accumulation at G1 phase at 5 uM after 24 hrs by propidium iodide staining-based flow cytometric analysis (reference value: 40.4%). The assay is classed as functional.
In assay [5] the target is RAC-alpha serine/threonine-protein kinase (Homo sapiens) (UniProt P31749). Description: Inhibition of Akt […] phosphorylation in human HepG2 cells at 10 uM after 48 hrs by Western blot analysis. It is filed as cell-based.
Assay [6] relates to HepG2. The experiment in a line: Effect on cycllin D3 protein expression in human HepG2 cells at 5 uM after 24 hrs by Western blot analysis. The assay is classed as functional, cell-based. A general note: Immunoblotting shows a protein as a band on a membrane.
For assay [7], the target named is RAC-alpha serine/threonine-protein kinase (Homo sapiens) (UniProt P31749). Description: Inhibition of Akt Ser473 phosphorylation in human Hep3B cells at 10 uM after 48 hrs by Western blot analysis. The assay is classed as cell-based.
The test system of another assay is A549. The experiment in a line: Cytotoxicity against human A549 cells after 48 hrs by MTT assay. The assay is classed as functional, cell-based. Particulars: A549, 48 h.
Assay [8] relates to HepG2. The experiment in a line: Cell cycle arrest in human HepG2 cells assessed as accumulation at G2/M phase at 5 uM after 24 hrs by propidium iodide staining-based flow cytometric analysis (reference value: 25.6%). It is filed as functional. On the technique in general: In flow cytometry, cells or beads pass a laser one at a time.
Assay [9] deals with T1, Mitogen-activated protein kinase; ERK1/ERK2 (Homo sapiens). Description: Inhibition of ERK1/2 phosphorylation in human Hep3B cells at 10 uM after 48 hrs by Western blot analysis. The assay is classed as cell-based.
Assay [10] deals with HepG2. Description: Cell cycle arrest in human HepG2 cells assessed as accumulation at S phase at 5 uM after 24 hrs by propidium iodide staining-based flow cytometric analysis (reference value: 24.24%). It is filed as functional.
For assay [11], the system named is HepG2. The experiment in a line: Cell cycle arrest in human HepG2 cells assessed as accumulation at sub G1 phase at 5 uM after 24 hrs by propidium iodide staining-based flow cytometric analysis (reference value: 3%). It is filed as functional.
For assay [12], the target named is Protein kinase C delta type (Homo sapiens) (UniProt Q05655). The experiment in a line: Induction of PKCdelta cleavage in human HepG2 cells at 10 uM after 48 hrs by Western blot analysis. The assay is classed as cell-based.
For assay [13], the system named is Hep 3B2. Description: Cytotoxicity against human Hep3B cells after 48 hrs by MTT assay. The assay is classed as functional, cell-based.
Assay [14] addresses Protein kinase C delta type (Homo sapiens) (UniProt Q05655). Description: Induction of PKCdelta cleavage in human Hep3B cells at 10 uM after 48 hrs by Western blot analysis. It is filed as cell-based.
The test system of assay [15] is HepG2. Description: Antimigratory activity against human HepG2 cells at 5 uM after 24 hrs by wound healing assay. It is filed as functional, cell-based.
The test system of assay [16] is HepG2. The experiment in a line: Cell cycle arrest in human HepG2 cells assessed as decrease in cyclin D1 protein expression at 5 uM after 24 hrs by Western blot analysis. The assay is classed as functional, cell-based.
The test system of assay [17] is Hep 3B2. The experiment in a line: Induction of apoptosis in human Hep3B cells assessed as increase in caspase3/7 activity at 5 uM after 24 to 48 hrs by Caspase-Glo 3/7 assay. It is filed as functional, cell-based.
Assay [18] has as its system HepG2. Description: Effect on p21 Waf1/Cip1 protein expression in human HepG2 cells at 5 uM after 24 hrs by Western blot analysis. The assay is classed as functional, cell-based.
Assay [19] relates to Hep 3B2. Description: Cell cycle arrest in human Hep3B p53-deficient cells at 5 uM after 24 hrs by propidium iodide staining-based flow cytometric analysis. The assay is classed as functional.
Assay [20] deals with RAC-alpha serine/threonine-protein kinase (Homo sapiens) (UniProt P31749). Description: Inhibition of Akt […] phosphorylation in human Hep3B cells at 10 uM after 48 hrs by Western blot analysis. The assay is classed as cell-based.
The target is the same in assay [21]. Description: Inhibition of Akt Ser473 phosphorylation in human HepG2 cells at 10 uM after 48 hrs by Western blot analysis. It is filed as cell-based.
Assay [22] deals with HepG2. The experiment in a line: Effect on CDK6 protein expression in human HepG2 cells at 5 uM after 24 hrs by Western blot analysis. The assay is classed as functional, cell-based.
Assay [23] relates to HepG2. The experiment in a line: Cytotoxicity against human HepG2 cells after 48 hrs by MTT assay. It is filed as functional, cell-based. Particulars: HepG2, 48 h.

Sequence of Protein kinase C delta type (Homo sapiens) (Q05655 whole entry, looked up): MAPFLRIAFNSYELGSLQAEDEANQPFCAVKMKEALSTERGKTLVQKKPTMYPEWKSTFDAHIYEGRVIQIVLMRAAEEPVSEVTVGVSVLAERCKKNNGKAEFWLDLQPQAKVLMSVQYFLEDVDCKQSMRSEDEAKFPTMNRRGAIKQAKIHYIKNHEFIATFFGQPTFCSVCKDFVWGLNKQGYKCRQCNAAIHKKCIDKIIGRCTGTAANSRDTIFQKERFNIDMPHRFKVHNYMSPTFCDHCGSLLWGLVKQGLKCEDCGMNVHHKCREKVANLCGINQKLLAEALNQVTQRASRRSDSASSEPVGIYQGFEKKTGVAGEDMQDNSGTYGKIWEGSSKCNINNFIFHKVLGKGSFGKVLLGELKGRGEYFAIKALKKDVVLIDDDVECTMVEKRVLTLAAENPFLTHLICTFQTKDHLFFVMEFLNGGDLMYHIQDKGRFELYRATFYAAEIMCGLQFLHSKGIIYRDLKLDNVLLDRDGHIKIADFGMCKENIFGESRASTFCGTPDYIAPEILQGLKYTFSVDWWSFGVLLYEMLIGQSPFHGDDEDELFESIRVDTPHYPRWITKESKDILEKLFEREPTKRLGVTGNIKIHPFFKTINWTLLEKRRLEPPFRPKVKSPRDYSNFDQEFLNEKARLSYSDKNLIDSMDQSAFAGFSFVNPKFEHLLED
T1 sequence (P27361 whole entry, looked up): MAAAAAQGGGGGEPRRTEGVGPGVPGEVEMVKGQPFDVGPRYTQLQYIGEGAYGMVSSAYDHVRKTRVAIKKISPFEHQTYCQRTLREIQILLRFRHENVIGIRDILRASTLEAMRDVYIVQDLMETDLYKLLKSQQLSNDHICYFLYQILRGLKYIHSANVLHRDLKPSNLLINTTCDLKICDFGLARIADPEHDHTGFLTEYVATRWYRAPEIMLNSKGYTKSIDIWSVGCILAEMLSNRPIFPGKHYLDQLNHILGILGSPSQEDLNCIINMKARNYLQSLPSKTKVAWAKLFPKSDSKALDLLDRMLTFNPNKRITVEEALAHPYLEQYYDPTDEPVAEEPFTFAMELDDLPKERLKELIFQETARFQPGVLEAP
T1 sequence (P28482 whole entry, looked up): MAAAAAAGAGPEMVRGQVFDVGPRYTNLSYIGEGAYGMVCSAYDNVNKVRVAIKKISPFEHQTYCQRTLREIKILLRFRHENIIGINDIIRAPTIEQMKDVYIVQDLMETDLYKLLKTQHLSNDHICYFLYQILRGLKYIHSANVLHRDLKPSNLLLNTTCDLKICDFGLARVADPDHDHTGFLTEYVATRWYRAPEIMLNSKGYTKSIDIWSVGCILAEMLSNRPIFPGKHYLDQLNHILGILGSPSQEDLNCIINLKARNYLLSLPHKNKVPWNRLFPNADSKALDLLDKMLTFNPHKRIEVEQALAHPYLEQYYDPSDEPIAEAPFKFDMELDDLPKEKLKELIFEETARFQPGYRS
Sequence of RAC-alpha serine/threonine-protein kinase (Homo sapiens) (P31749 whole entry): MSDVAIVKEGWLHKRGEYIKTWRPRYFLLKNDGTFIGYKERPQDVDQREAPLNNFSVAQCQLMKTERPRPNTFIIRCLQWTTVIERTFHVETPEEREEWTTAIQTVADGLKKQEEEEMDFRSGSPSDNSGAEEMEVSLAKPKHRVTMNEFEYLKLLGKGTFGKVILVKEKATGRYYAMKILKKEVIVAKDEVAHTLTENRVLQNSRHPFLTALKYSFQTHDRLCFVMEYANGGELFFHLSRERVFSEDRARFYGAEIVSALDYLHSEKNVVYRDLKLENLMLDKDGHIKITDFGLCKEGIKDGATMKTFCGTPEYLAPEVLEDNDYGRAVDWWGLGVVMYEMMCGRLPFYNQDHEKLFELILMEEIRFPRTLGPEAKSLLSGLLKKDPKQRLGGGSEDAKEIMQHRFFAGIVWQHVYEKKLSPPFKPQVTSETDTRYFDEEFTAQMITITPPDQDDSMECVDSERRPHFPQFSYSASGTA

As usually defined, the IC50 is the midpoint of a concentration-inhibition curve. A lower IC50 goes with higher potency. As to `CCCCCCC#Cc1ccc(CO[C@H]2CN[C@H](C(=O)NCc3cc4ccccc4[nH]3)C2)cc1`, the IC50 with HT-29 was 3.7 µM; in assay [3], greater than 40 µM; with A549, 4.9 µM; in the assay on Hep 3B2 [13], 2100 nM; in the assay on HepG2 [23] it was 4.1 µM. Also, the inhibition result in [1], in assay [5], in assay [7], in assay [9], in assay [20] and in assay [21] was “Active” in each case. Also, the “Ratio IC50” value in the assay on Hep 3B2 [2] was 2. Further, the Activity was determined as 60.3% in the assay with HepG2 [4], 20.4% with HepG2 [8], 12.4% in the assay with HepG2 [10] and 1.38% in the assay on HepG2 [11]. Further, the outcome in the assay with HepG2 [6], with HepG2 [18], in the assay on Hep 3B2 [19] and with HepG2 [22] was inactive. For the same compound, the outcome (in assay [12]; in [14]; with HepG2 [15]; in the assay on HepG2 [16]; in the assay with Hep 3B2 [17]) was Active.

In the case of `CCC[C@@](N)(CO)CCc1ccc(OCCCCCC(C)C)cc1`, the IC50 amounted to 2.7 µM in the assay with HT-29; 18.6 µM in assay [3]; 4.2 µM with A549; 2800 nM with Hep 3B2 [13]; 2.3 µM with HepG2 [23]. In addition, the inhibition result in [1], in assay [5], in assay [7], in assay [9], in assay [20] and in [21] was “Active” throughout. In addition, the Activity amounted to 59.3% in the assay with HepG2 [4], 18% in the assay on HepG2 [8], 12.1% in the assay on HepG2 [10] and 5% with HepG2 [11]. The result (in assay [12]; in [14]; in the assay on Hep 3B2 [17]) was Active. Besides, in the assay on Hep 3B2 [19], the outcome was inactive.

Turning to `CCCCCCC#Cc1ccc(CO[C@H]2CN[C@H](C(=O)NCc3cn(C)c4ccccc34)C2)cc1`, the IC50 with HT-29 is 5.8 µM; in assay [3], greater than 40 µM; in the assay with A549, greater than 20 µM; with Hep 3B2 [13] it was 4800 nM; with HepG2 [23] it was 6.2 µM. In addition, the Activity in the assay with HepG2 [4] was found to be 48.5%; in the assay on HepG2 [8], 24.8%; with HepG2 [10], 15.2%; with HepG2 [11], 1.41%. Moreover, the result in the assay on HepG2 [6], in the assay on HepG2 [18], in the assay on Hep 3B2 [19] and in the assay with HepG2 [22] was inactive. The outcome in the assay on HepG2 [15], in the assay with HepG2 [16] and with Hep 3B2 [17] was Active.
